Measurements reported in PubChem BioAssay (NCI).
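Tested at 5 concentrations; 48 h exposure; 96-well plates; endpoints linearly interpolated, else capped at highest concentration. TGI denotes the concentration required for complete inhibition of growth.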

How the values were obtained:
Assay in all cases: growth of human tumour cells (NCI), 48 h
[1] = system: MDA-MB-435
[2] = system: HS 578T breast
[3] = system: OVCAR-3 ovarian
[4] = system: MDA-N
[5] = system: T-47D breast
[6] = system: BT-549 breast
[7] = system: OVCAR-5 ovarian
[8] = system: M14 melanoma
[9] = system: OVCAR-4 ovarian
[10] = system: MCF7 breast
[11] = system: NCI-H522 lung
[12] = system: SF-539 CNS
[13] = system: MALME-3M melanoma
[14] = system: SNB-19 CNS
[15] = system: KM12 colon
[16] = system: TK-10 renal
[17] = system: DU-145 prostate
[18] = system: SF-268 CNS
[19] = system: SK-OV-3 ovarian
[20] = system: CCRF-CEM leukemia
[21] = system: NCI-H23 lung
[22] = system: PC-3 prostate
[23] = system: ACHN renal
[24] = system: HT29 colon
[25] = system: SK-MEL-28 melanoma
[26] = system: SK-MEL-2 melanoma
[27] = system: 786-0 renal
[28] = system: HL-60(TB) leukemia
[29] = system: HCT-116 colon
[30] = system: CAKI-1 renal
[31] = system: SN12C renal
[32] = system: UACC-62 melanoma
[33] = system: COLO 205 colon
[34] = system: SK-MEL-5 melanoma
[35] = system: K-562 leukemia
[36] = system: LOX IMVI melanoma
[37] = system: RPMI-8226 leukemia
[38] = system: RXF 393 renal
[39] = system: HCC-2998 colon
[40] = system: UO-31 renal
[41] = system: A549 NSCLC
[42] = system: HOP-62 NSCLC
[43] = system: MDA-MB-231 breast
[44] = system: UACC-257 melanoma
[45] = system: MOLT-4 leukemia
[46] = system: SF-295 CNS
[47] = system: U251 CNS
[48] = system: IGROV1 ovarian
[49] = system: NCI-H226 lung
[50] = system: SW-620 colon
[51] = system: NCI-H460 lung
[52] = system: A498 renal
[53] = system: OVCAR-8 ovarian
[54] = system: EKVX NSCLC
[55] = system: HCT-15 colon
[56] = system: NCI/ADR-RES ovarian
[57] = system: HOP-92 NSCLC
[58] = system: SNB-75 CNS

Nc1ncnc2nc(N3CCN(CCO)CC3)[nH]c12
TGI [1]: > 100 µM | TGI [2]: > 100 µM | TGI [3]: > 100 µM | TGI [4]: > 100 µM | TGI [5]: > 100 µM | TGI [6]: > 100 µM | TGI [7]: > 100 µM | TGI [8]: > 100 µM | TGI [9]: > 100 µM | TGI [10]: > 100 µM | TGI [11]: > 100 µM | TGI [12]: > 100 µM | TGI [13]: > 100 µM | TGI [14]: > 100 µM | TGI [15]: > 100 µM | TGI [16]: > 100 µM | TGI [17]: > 100 µM | TGI [18]: > 100 µM | TGI [19]: > 100 µM | TGI [20]: > 100 µM | TGI [21]: > 100 µM | TGI [22]: > 100 µM | TGI [23]: > 100 µM | TGI [24]: > 100 µM | TGI [25]: > 100 µM | TGI [26]: > 100 µM | TGI [27]: > 100 µM | TGI [28]: > 100 µM | TGI [29]: > 100 µM | TGI [30]: > 100 µM | TGI [31]: > 100 µM | TGI [32]: > 100 µM | TGI [33]: > 100 µM | TGI [34]: > 100 µM | TGI [35]: > 100 µM | TGI [36]: > 100 µM | TGI [37]: > 100 µM | TGI [38]: > 100 µM | TGI [39]: > 100 µM | TGI [40]: > 100 µM | TGI [41]: > 100 µM | TGI [42]: > 100 µM | TGI [43]: > 100 µM | TGI [44]: > 100 µM | TGI [45]: > 100 µM | TGI [46]: > 100 µM | TGI [47]: > 100 µM | TGI [48]: > 100 µM | TGI [49]: > 100 µM | TGI [50]: > 100 µM | TGI [51]: > 100 µM | TGI [52]: > 100 µM | TGI [53]: > 100 µM | TGI [54]: > 100 µM | TGI [55]: > 100 µM | TGI [56]: > 100 µM

Oc1ccc2c(c1)OCC1c3ccccc3OC21 (stereo unspecified)
TGI [1]: > 100 µM | TGI [2]: > 100 µM | TGI [3]: > 100 µM | TGI [4]: > 100 µM | TGI [5]: > 100 µM | TGI [6]: > 100 µM | TGI [7]: > 100 µM | TGI [8]: > 100 µM | TGI [9]: > 100 µM | TGI [10]: > 100 µM | TGI [12]: > 100 µM | TGI [14]: > 100 µM | TGI [15]: > 100 µM | TGI [16]: > 100 µM | TGI [17]: > 100 µM | TGI [18]: > 100 µM | TGI [19]: > 100 µM | TGI [20]: > 100 µM | TGI [21]: > 100 µM | TGI [22]: > 100 µM | TGI [23]: > 100 µM | TGI [24]: > 100 µM | TGI [25]: > 100 µM | TGI [26]: > 100 µM | TGI [27]: > 100 µM | TGI [57]: > 100 µM | TGI [28]: 83.4 µM | TGI [29]: > 100 µM | TGI [30]: > 100 µM | TGI [31]: > 100 µM | TGI [32]: > 100 µM | TGI [33]: > 100 µM | TGI [34]: > 100 µM | TGI [35]: > 100 µM | TGI [36]: > 100 µM | TGI [37]: > 100 µM | TGI [38]: > 100 µM | TGI [39]: > 100 µM | TGI [40]: > 100 µM | TGI [42]: > 100 µM | TGI [43]: > 100 µM | TGI [44]: > 100 µM | TGI [45]: 65.2 µM | TGI [46]: > 100 µM | TGI [47]: > 100 µM | TGI [48]: > 100 µM | TGI [49]: > 100 µM | TGI [50]: > 100 µM | TGI [51]: > 100 µM | TGI [52]: > 100 µM | TGI [53]: > 100 µM | TGI [54]: 86.7 µM | TGI [55]: > 100 µM | TGI [58]: > 100 µM | TGI [56]: > 100 µM

CC(C)(C)c1ccc2c(c1)C(=O)c1ccccc1C2=O
TGI [1]: > 100 µM | TGI [2]: > 100 µM | TGI [3]: > 100 µM | TGI [4]: > 100 µM | TGI [5]: > 100 µM | TGI [6]: > 100 µM | TGI [7]: > 100 µM | TGI [8]: > 100 µM | TGI [9]: > 100 µM | TGI [10]: 66.3 µM | TGI [12]: > 100 µM | TGI [13]: > 100 µM | TGI [14]: > 100 µM | TGI [15]: > 100 µM | TGI [16]: > 100 µM | TGI [17]: > 100 µM | TGI [18]: > 100 µM | TGI [19]: > 100 µM | TGI [20]: > 100 µM | TGI [21]: > 100 µM | TGI [22]: > 100 µM | TGI [23]: > 100 µM | TGI [24]: 68.8 µM | TGI [25]: > 100 µM | TGI [27]: > 100 µM | TGI [57]: 85 µM | TGI [28]: > 100 µM | TGI [29]: > 100 µM | TGI [30]: > 100 µM | TGI [31]: > 100 µM | TGI [32]: > 100 µM | TGI [33]: 60.3 µM | TGI [34]: 40.2 µM | TGI [35]: > 100 µM | TGI [36]: > 100 µM | TGI [37]: > 100 µM | TGI [38]: 80 µM | TGI [40]: > 100 µM | TGI [41]: > 100 µM | TGI [42]: > 100 µM | TGI [43]: > 100 µM | TGI [44]: > 100 µM | TGI [45]: 65.8 µM | TGI [46]: > 100 µM | TGI [47]: > 100 µM | TGI [48]: > 100 µM | TGI [49]: 92.6 µM | TGI [50]: > 100 µM | TGI [51]: > 100 µM | TGI [52]: > 100 µM | TGI [53]: > 100 µM | TGI [54]: 75.9 µM | TGI [55]: > 100 µM | TGI [58]: 87 µM | TGI [56]: > 100 µM
